From PubChem BioAssay (NCI)
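Values below derive from 48-hour exposures of cells grown in 96-well plates, with endpoints linearly interpolated between the two concentrations bracketing the appropriate inhibition level. GI50: concentration for 50% inhibition of growth. Definition used: TGI = concentration required for complete inhibition of growth.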

Legend:
Experiment in all cases: inhibition of tumour cell growth, NCI panel, 48 h
SNB-19 CNS = test system: SNB-19 CNS
HOP-62 NSCLC = test system: HOP-62 NSCLC
NCI-H23 lung = test system: NCI-H23 lung
ACHN renal = test system: ACHN renal
EKVX NSCLC = test system: EKVX NSCLC
SF-268 CNS = test system: SF-268 CNS
OVCAR-5 ovarian = test system: OVCAR-5 ovarian
PC-3 prostate = test system: PC-3 prostate
U251 CNS = test system: U251 CNS
HCT-15 colon = test system: HCT-15 colon
HCC-2998 colon = test system: HCC-2998 colon
A498 renal = test system: A498 renal
HOP-92 NSCLC = test system: HOP-92 NSCLC
T-47D breast = test system: T-47D breast
NCI/ADR-RES ovarian = test system: NCI/ADR-RES ovarian
DU-145 prostate = test system: DU-145 prostate
SK-MEL-2 melanoma = test system: SK-MEL-2 melanoma
SW-620 colon = test system: SW-620 colon
M14 melanoma = test system: M14 melanoma
SNB-75 CNS = test system: SNB-75 CNS
SN12C renal = test system: SN12C renal
HL-60(TB) leukemia = test system: HL-60(TB) leukemia
CCRF-CEM leukemia = test system: CCRF-CEM leukemia
SF-295 CNS = test system: SF-295 CNS
UACC-62 melanoma = test system: UACC-62 melanoma
BT-549 breast = test system: BT-549 breast
MOLT-4 leukemia = test system: MOLT-4 leukemia
NCI-H226 lung = test system: NCI-H226 lung
RXF 393 renal = test system: RXF 393 renal

How did the GI50 (SNB-19 CNS) turn out when `O=C1c2c(c3c4ccccc4n(CCCCCCN4CCOCC4)c3c3[nH]c4ccccc4c23)C(=O)N1O` was run?
Its GI50 is 10.4 µM.

What about the TGI (SNB-19 CNS) of the same compound?
Its TGI is > 100 µM.

What about the GI50 (HOP-62 NSCLC) of the same compound?
The GI50 was 18.2 µM.

What about the TGI (HOP-62 NSCLC) of the same compound?
Its TGI is 55.2 µM.

What about the GI50 (NCI-H23 lung) of the same compound?
The GI50 was 15.8 µM.

What about the TGI (NCI-H23 lung) of the same compound?
Its TGI is 45.9 µM.

What about the GI50 (ACHN renal) of the same compound?
Its GI50 is 4.14 µM.

And the GI50 (EKVX NSCLC)?
The GI50 was > 43.1 µM.

What about the TGI (EKVX NSCLC) of the same compound?
Its TGI is > 82.5 µM.

And the GI50 (SF-268 CNS)?
Its GI50 is 15.8 µM.

What about the TGI (SF-268 CNS) of the same compound?
The TGI was 39.4 µM.

And the GI50 (OVCAR-5 ovarian)?
Its GI50 is > 49.3 µM.

What about the TGI (OVCAR-5 ovarian) of the same compound?
The TGI was > 75.8 µM.

And the GI50 (PC-3 prostate)?
The GI50 was 12.1 µM.

What about the TGI (PC-3 prostate) of the same compound?
The TGI was > 57 µM.

And the GI50 (U251 CNS)?
The GI50 was 1.68 µM.

What about the TGI (U251 CNS) of the same compound?
The TGI was 3.22 µM.

What about the GI50 (HCT-15 colon) of the same compound?
The GI50 was 3.03 µM.

What about the TGI (HCT-15 colon) of the same compound?
Its TGI is 12.2 µM.

And the GI50 (HCC-2998 colon)?
The GI50 was 9.6 µM.

What about the TGI (HCC-2998 colon) of the same compound?
Its TGI is 32.1 µM.

What about the GI50 (A498 renal) of the same compound?
Its GI50 is 9.15 µM.

What about the TGI (A498 renal) of the same compound?
The TGI was 25.4 µM.

What about the GI50 (HOP-92 NSCLC) of the same compound?
The GI50 was 13.2 µM.

And the TGI (HOP-92 NSCLC)?
Its TGI is 38.3 µM.

What about the GI50 (T-47D breast) of the same compound?
The GI50 was 18.7 µM.

And the TGI (T-47D breast)?
The TGI was > 94.6 µM.

And the GI50 (NCI/ADR-RES ovarian)?
The GI50 was > 69.8 µM.

And the TGI (NCI/ADR-RES ovarian)?
The TGI was > 100 µM.

What about the GI50 (DU-145 prostate) of the same compound?
The GI50 was 11.5 µM.

And the TGI (DU-145 prostate)?
The TGI was > 100 µM.

What about the GI50 (SK-MEL-2 melanoma) of the same compound?
The GI50 was 19.5 µM.

What about the TGI (SK-MEL-2 melanoma) of the same compound?
The TGI was 46 µM.

And the GI50 (SW-620 colon)?
Its GI50 is 1.68 µM.

And the TGI (SW-620 colon)?
The TGI was 3.93 µM.

And the GI50 (M14 melanoma)?
Its GI50 is 4.02 µM.

And the TGI (M14 melanoma)?
The TGI was 30.7 µM.

And the GI50 (SNB-75 CNS)?
The GI50 was 1.36 µM.

What about the TGI (SNB-75 CNS) of the same compound?
Its TGI is 7.57 µM.

And the GI50 (SN12C renal)?
Its GI50 is 6.86 µM.

What about the TGI (SN12C renal) of the same compound?
The TGI was 26.4 µM.

What about the GI50 (HL-60(TB) leukemia) of the same compound?
Its GI50 is 2.49 µM.

And the TGI (HL-60(TB) leukemia)?
The TGI was 8.22 µM.

What about the GI50 (CCRF-CEM leukemia) of the same compound?
Its GI50 is 2.25 µM.

What about the TGI (CCRF-CEM leukemia) of the same compound?
The TGI was 8.35 µM.

What about the GI50 (SF-295 CNS) of the same compound?
The GI50 was 16.8 µM.

And the TGI (SF-295 CNS)?
Its TGI is 35.7 µM.

And the GI50 (UACC-62 melanoma)?
The GI50 was 1.91 µM.

What about the TGI (UACC-62 melanoma) of the same compound?
The TGI was 4.62 µM.

And the GI50 (BT-549 breast)?
Its GI50 is 17.9 µM.

What about the TGI (BT-549 breast) of the same compound?
Its TGI is 46.9 µM.

And the GI50 (MOLT-4 leukemia)?
The GI50 was 1.79 µM.

And the TGI (MOLT-4 leukemia)?
The TGI was 4.63 µM.

And the GI50 (NCI-H226 lung)?
Its GI50 is > 32.5 µM.

What about the TGI (NCI-H226 lung) of the same compound?
Its TGI is > 80.4 µM.

And the GI50 (RXF 393 renal)?
Its GI50 is 7.61 µM.
